Where two headings read alike, the source gives them in different places.

Holding throughout (test): TR-FRET kinase assay, GFP-ATF2 ([…]-96) phosphorylation
What all share (type): biochemical
In general terms: TR-FRET usually uses a lanthanide donor and a delayed reading to cut background.

The target in test [1] is T1, MAPK14/p38α (Homo sapiens, UniProt Q16539).
The target of a further test is T2, p38γ (Homo sapiens, UniProt P53778).
T2 construct: gene MAPK12
T2 sequence (P53778 1-367): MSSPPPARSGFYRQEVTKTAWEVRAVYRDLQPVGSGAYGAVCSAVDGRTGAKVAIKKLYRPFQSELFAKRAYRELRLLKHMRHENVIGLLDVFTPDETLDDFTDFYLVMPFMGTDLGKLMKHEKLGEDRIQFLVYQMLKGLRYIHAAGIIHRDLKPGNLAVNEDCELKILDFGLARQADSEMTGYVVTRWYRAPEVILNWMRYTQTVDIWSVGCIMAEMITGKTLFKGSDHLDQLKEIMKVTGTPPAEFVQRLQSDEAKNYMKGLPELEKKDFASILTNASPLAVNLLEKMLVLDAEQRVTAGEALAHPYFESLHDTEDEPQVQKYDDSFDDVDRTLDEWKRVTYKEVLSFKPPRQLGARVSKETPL

For another test, the target named is T3, p38δ (Homo sapiens, UniProt O15264).
T3 construct: gene MAPK13
T3 sequence (O15264 1-365): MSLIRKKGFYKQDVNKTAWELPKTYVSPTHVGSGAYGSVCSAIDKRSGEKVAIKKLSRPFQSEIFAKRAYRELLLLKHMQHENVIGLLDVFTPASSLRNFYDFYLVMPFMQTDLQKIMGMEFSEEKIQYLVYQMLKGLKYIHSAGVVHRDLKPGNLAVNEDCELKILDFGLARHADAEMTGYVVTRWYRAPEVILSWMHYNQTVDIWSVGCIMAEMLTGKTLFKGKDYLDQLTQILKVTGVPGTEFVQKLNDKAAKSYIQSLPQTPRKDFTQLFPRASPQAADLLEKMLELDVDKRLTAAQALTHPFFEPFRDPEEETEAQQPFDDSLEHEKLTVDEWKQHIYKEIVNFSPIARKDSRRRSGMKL

A further test addresses T4, p38β (Homo sapiens, UniProt Q15759).
T4 construct: gene MAPK11

Test [2] addresses T1, MAPK14/p38α. Particulars: 90 μM ATP, 0.4 μM GFP-ATF2, 10 mM MgCl2, pH 7.5, RT, 15 min preincubation; unreliable (the two tables disagree).

T1 sequence (Q16539 2-360): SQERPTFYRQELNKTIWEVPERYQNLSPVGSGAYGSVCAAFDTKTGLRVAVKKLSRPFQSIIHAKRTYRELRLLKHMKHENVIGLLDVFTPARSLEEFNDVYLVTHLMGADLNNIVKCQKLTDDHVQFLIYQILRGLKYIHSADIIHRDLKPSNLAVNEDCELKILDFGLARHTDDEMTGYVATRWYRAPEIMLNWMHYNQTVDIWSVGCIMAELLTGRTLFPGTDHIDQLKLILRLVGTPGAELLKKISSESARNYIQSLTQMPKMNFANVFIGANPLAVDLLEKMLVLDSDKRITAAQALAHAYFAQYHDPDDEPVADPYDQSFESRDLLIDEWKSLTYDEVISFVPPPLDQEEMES
T4 sequence (Q15759 whole entry): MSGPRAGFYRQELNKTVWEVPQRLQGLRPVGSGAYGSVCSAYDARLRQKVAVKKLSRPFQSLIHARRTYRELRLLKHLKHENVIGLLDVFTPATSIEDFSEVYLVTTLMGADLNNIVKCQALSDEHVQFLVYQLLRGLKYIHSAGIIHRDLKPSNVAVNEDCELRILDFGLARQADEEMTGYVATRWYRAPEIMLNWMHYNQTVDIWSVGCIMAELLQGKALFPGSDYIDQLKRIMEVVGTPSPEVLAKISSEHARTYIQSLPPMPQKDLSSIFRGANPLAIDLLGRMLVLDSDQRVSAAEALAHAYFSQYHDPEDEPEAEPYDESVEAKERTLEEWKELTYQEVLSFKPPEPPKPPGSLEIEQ

For `Cc1ccc(-n2nc(C(C)(C)C)cc2NC(=O)NCc2cc(F)ccc2Oc2ccc3nc(NC(=O)NC(C)(C)C)sc3c2)cc1` [9i, 1-(3-(Tert-butyl)-1-(p-tolyl)-1H-pyrazol-5-yl)-3-(2-((2-(3-(tert-butyl)ureido)benzo[d]thiazol-6-yl)oxy)-5-fluorobenzyl)urea], half-maximal inhibition against MAPK14/p38α [1] (IC50) was put at 7.54 ± 1.99 nM.
On the same count and under the same terms, the value for `Cc1ccc(-n2nc(C(C)(C)C)cc2NC(=O)NCc2cc(F)ccc2Oc2ccc3nc(N)sc3c2)cc1` [8b, 1-(2-((2-Aminobenzo[d]thiazol-6-yl)oxy)-5-fluorobenzyl)-3-(3-(tert-butyl)-1-(p-tolyl)-1H-pyrazol-5-yl)urea] was 1.11 ± 0.2 nM.
The same measure, in the same setting: the value for `CC(C)(C)c1cc(NC(=O)NCc2ccccc2Oc2ccc3nc(N)sc3c2)n(-c2ccc([N+](=O)[O-])cc2)n1` [8a, 1-(2-((2-Aminobenzo[d]thiazol-6-yl)oxy)benzyl)-3-(3-(tert-butyl)-1-(4-nitrophenyl)-1H-pyrazol-5-yl)urea] was 2.878 ± 0.01 nM.
In the case of `CCNC(=O)Nc1nc2ccc(Oc3ccccc3CNC(=O)Nc3cc(C(C)(C)C)nn3-c3ccc(C)cc3)cc2s1` [9d, 1-(3-(Tert-butyl)-1-(p-tolyl)-1H-pyrazol-5-yl)-3-(2-((2-(3-ethylureido)benzo[d]thiazol-6-yl)oxy)benzyl)urea], the IC50 amounted to 191 ± 7.2 nM on p38γ, 231 ± 7.15 nM against p38δ, 1.5 ± 0.24 nM on MAPK14/p38α [1] and 17.5 ± 1.25 nM against p38β.
Compound `COC(=O)Nc1nc2ccc(Oc3ccc(F)cc3CNC(=O)Nc3cc(C(C)(C)C)nn3-c3ccc(C)cc3)cc2s1` [9j, Methyl(6-(2-((3-(3-(tert-butyl)-1-(p-tolyl)-1H-pyrazol-5-yl)ureido)methyl)-4-fluorophenoxy)benzo[d]thiazol-2-yl)carbamate] registered an IC50 on MAPK14/p38α [1] of 4.28 ± 1.14 nM.
The same measure, in the same setting: the value for `Cc1ccc(-n2nc(C(C)(C)C)cc2NC(=O)NCc2cc(F)ccc2Oc2ccc3nc(NC(=O)NC4CCCCC4)sc3c2)cc1` [9h, 1-(3-(Tert-butyl)-1-(p-tolyl)-1H-pyrazol-5-yl)-3-(2-((2-(3-cyclohexylureido)benzo[d]thiazol-6-yl)oxy)-5-fluorobenzyl)urea] was 12.4 ± 0.18 nM.
On the same count and under the same terms, the figure for `Cc1ccc(-n2nc(C(C)(C)C)cc2NC(=O)NCc2ccccc2Oc2ccc3nc(NC(=O)NC(C)(C)C)sc3c2)cc1` [9b, 1-(3-(Tert-butyl)-1-(p-tolyl)-1H-pyrazol-5-yl)-3-(2-((2-(3-(tert-butyl)ureido)benzo[d]thiazol-6-yl)oxy)benzyl)urea] is 6.16 ± 0.07 nM; for `Cc1ccc(-n2nc(C(C)(C)C)cc2NC(=O)NCc2ccccc2Oc2ccc3nc(NC(=O)NC4CCCCC4)sc3c2)cc1` [9f, 1-(3-(Tert-butyl)-1-(p-tolyl)-1H-pyrazol-5-yl)-3-(2-((2-(3-cyclohexylureido)benzo[d]thiazol-6-yl)oxy)benzyl)urea] it is 4.499 ± 0.04 nM.
With `Cc1ccc(-n2nc(C(C)(C)C)cc2NC(=O)NCc2ccccc2Oc2ccc3nc(NC(=O)NCCCl)sc3c2)cc1` [9e, 1-(3-(Tert-butyl)-1-(p-tolyl)-1H-pyrazol-5-yl)-3-(2-((2-(3-(2-chloroethyl)ureido)benzo[d]thiazol-6-yl)oxy)benzyl)urea], the IC50 at MAPK14/p38α [1] (read-out: p38α IC50 (nM) ^a) worked out at 3.29 ± 0.25 nM.
As for `CCNC(=O)Nc1nc2ccc(Oc3ccc(F)cc3CNC(=O)Nc3cc(C(C)(C)C)nn3-c3ccc(C)cc3)cc2s1` [9g, 1-(3-(Tert-butyl)-1-(p-tolyl)-1H-pyrazol-5-yl)-3-(2-((2-(3-ethylureido)benzo[d]thiazol-6-yl)oxy)-5-fluorobenzyl)urea], the figures for the IC50 against p38γ, on p38δ and against p38β were 424 ± 5.75 nM, 948.4 ± 8.35 nM and 20.1 ± 1.4 nM, respectively. The “p38α IC50 (nM) ^a” value on MAPK14/p38α [2] was 0.844 ± 1.04 nM.
As for `COC(=O)Nc1nc2ccc(Oc3ccccc3CNC(=O)Nc3cc(C(C)(C)C)nn3-c3ccc([N+](=O)[O-])cc3)cc2s1` [9a, Methyl(6-(2-((3-(3-(tert-butyl)-1-(4-nitrophenyl)-1H-pyrazol-5-yl)ureido)methyl)phenoxy)benzo[d]thiazol-2-yl)carbamate], at MAPK14/p38α [1], the IC50 worked out at 1.31 ± 0.09 nM.
On the same count and under the same terms, the value for `COC(=O)Nc1nc2ccc(Oc3ccccc3CNC(=O)Nc3cc(C(C)(C)C)nn3-c3ccc(C)cc3)cc2s1` [9c, Methyl(6-(2-((3-(3-(tert-butyl)-1-(p-tolyl)-1H-pyrazol-5-yl)ureido)methyl)phenoxy)benzo[d]thiazol-2-yl)carbamate] was 1.02 ± 0.09 nM.

The IC50 is the concentration that gives 50% inhibition.

Values taken from publication PMC6332430, “Design, Synthesis and Biological Evaluation of Novel Substituted N,N′-Diaryl ureas as Potent p38 Inhibitors” (Molecules, 2015).
